# Measured values as given in US12122785B2, “Substituted pyridines, pyridazines, pyrimidines, and 1,2,4-triazines as TYK2 inhibitors” (Sudo Biosciences Limited, priority 2021, dated 2024).
# Experiments:
# [1] = test system: TYK2 pseudokinase (JH2); IL-23-stimulated HEK-Blue IL-23 cells; assay: HEK-Blue IL-23 reporter assay (STAT3-inducible SEAP) for profiling TYK2 pseudokinase (JH2) inhibition; format: cell-based; conditions: 10 ng/mL human recombinant IL-23, SEAP readout, read-out: IL23 (TYK2 inhibitory activity, IC50)
# Summary of the method: (§1)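 Reporter cells were seeded in DMEM/10% heat-inactivated FBS and cultured 20-22 h at 37 °C. Compounds, serially diluted, were applied for 60 min before human recombinant IL-23 (10 ng/mL, 22-24 h) or IFNα (1 ng/mL, 16-18 h) was added. Secreted alkaline phosphatase was then quantified with QUANTI-Blue.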
# [2] = test system: TYK2 pseudokinase (JH2); IFNα-stimulated HEK-Blue IFNα/β cells; assay: HEK-Blue IFNα/β reporter assay (STAT1-inducible SEAP) for profiling TYK2 pseudokinase (JH2) inhibition; format: cell-based; conditions: 1 ng/mL human recombinant IFNα, SEAP readout, read-out: IFNα (TYK2 inhibitory activity, IC50)
# Summary of the method: as §1
# TYK2 kinase domain (JH1) = target: T1, TYK2 kinase domain (JH1) (Homo sapiens, UniProt P29597); assay: HTRF-based selectivity assay, TYK2 catalytic domain; format: biochemical; conditions: 20 μM ATP
# T1 construct: recombinant purified His or GST-tagged catalytic domain for each enzyme; made in house
# T1 sequence (P29597 897-1176 limits assumed): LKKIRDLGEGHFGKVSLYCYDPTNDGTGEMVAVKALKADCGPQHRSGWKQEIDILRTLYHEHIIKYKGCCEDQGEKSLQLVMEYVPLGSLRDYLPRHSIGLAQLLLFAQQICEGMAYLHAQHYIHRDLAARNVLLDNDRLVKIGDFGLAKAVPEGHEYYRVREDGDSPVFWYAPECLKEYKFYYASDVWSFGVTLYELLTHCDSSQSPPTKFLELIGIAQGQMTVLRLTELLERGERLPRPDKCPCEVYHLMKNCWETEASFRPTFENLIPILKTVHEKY
# JAK1 kinase domain (JH1) = target: T2, JAK1 kinase domain (JH1) (Homo sapiens, UniProt P23458); assay: HTRF-based selectivity assay, JAK1 catalytic domain; format: biochemical; conditions: 21.43 μM ATP, read-out: JAK-JHI (IC50)
# T2 construct: recombinant purified His or GST-tagged catalytic domain for each enzyme; made in house
# Summary of the method: (§2)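 Recombinant His- or GST-tagged JAK catalytic domains (JAK1 80.6, JAK2 2.1, JAK3 171.8 ng/mL) preincubated with compound 5-20 min at RT, then ATP (JAK1 21.43, JAK2 14.7, JAK3 2.12 μM) plus peptide substrate (454.7, 200, 257.4 nM respectively) added. HEPES buffer with MgCl2, 60 min at 26.5 °C; HTRF read-out.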
# JAK2 kinase domain (JH1) = target: T3, JAK2 kinase domain (JH1) (Homo sapiens, UniProt O60674); assay: HTRF-based selectivity assay, JAK2 catalytic domain; format: biochemical; conditions: 14.7 μM ATP
# T3 construct: recombinant purified His or GST-tagged catalytic domain for each enzyme; made in house
# Summary of the method: as §2
# JAK3 kinase domain (JH1) = target: T4, JAK3 kinase domain (JH1) (Homo sapiens, UniProt P52333); assay: HTRF-based selectivity assay, JAK3 catalytic domain; format: biochemical; conditions: 2.12 μM ATP
# T4 construct: recombinant purified His or GST-tagged catalytic domain for each enzyme; purchased Carna biosciences 08-046
# Experimental: Example B-2: HTRF-Based Selectivity Assay
# The ability of compounds to inhibit the activity of JAK1, JAK2, JAK3 and TYK2 is measured using a recombinant purified His or GST-tagged catalytic domain for each enzyme (JAK1, JAK2 and TYK2 are generated in-house; JAK3 was purchased from Carna biosciences, Cat #08-046) in an HTRF format biochemical assay. The reactions employs a commercial peptide substrate from Cisbio (Cat #62TK0PEC). The basic assay protocol is as follows: first, 2.5 μL of diluted compounds (4×) in DMSO are dispensed into a 384-well Optiplate. Next, 2.5 μL of enzyme (final concentrations for enzymes are: TYK2—700 ng/mL, JAK1—80.6 ng/mL, JAK2—2.1 ng/mL and JAK3—171.8 ng/mL) is added and incubated at RT for 5-20 min. Finally, 5 μl of mixture of 2×ATP [Final concentration 20 μM for TYK2, 21.43 μM for JAK1, 14.7 μM for JAK2 and 2.12 μM for JAK3]+2× Substrate [Final concentration 217 nM for TYK2, 454.7 nM for JAK1, 200 nM for JAK2 and 257.4 nM for JAK3] is added to 384 well Optiplate. Composition of Kinase assay buffer used in the assay is as follows: HEPES 50 mM, EGTA 1 mM, MgCl2 10 mM, DTT 2 mM, Tween-20 0.01% and water. Then the plates are shaken and then incubated at 26.5° C. for 60 min.
# [3] = test system: IL-2-stimulated HEK-Blue IL-2 reporter cells; assay: HEK-Blue IL-2 reporter assay (STAT5-inducible SEAP) for determining selectivity; format: cell-based; conditions: 4 ng/mL human recombinant IL-2, 24 hours
# Summary of the method: (§3)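 Cells were plated for 20-22 h, then pretreated with serially diluted compound for 60 min. They were stimulated for 24 h with 4 ng/mL human recombinant IL-2 or 50 ng/mL human recombinant IFNγ, and SEAP induction was read with QUANTI-Blue.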
# [4] = test system: IFNγ-stimulated HEK-Blue IFNγ reporter cells; assay: HEK-Blue IFNγ reporter assay (STAT1-inducible SEAP) for determining selectivity; format: cell-based; conditions: 50 ng/mL human recombinant IFNγ, 24 hours, read-out: IFN-γ SEAP selectivity assay IC50
# Summary of the method: as §3
# T4 sequence (P52333 822-1111 limits assumed): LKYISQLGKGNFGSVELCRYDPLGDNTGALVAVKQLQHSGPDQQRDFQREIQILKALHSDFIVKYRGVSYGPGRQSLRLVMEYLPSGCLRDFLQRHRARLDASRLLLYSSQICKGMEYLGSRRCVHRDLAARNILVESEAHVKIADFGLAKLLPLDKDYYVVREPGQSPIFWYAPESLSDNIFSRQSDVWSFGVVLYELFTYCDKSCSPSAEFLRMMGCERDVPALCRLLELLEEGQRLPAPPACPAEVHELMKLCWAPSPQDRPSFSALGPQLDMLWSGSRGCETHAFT
# T3 sequence (O60674 849-1124 limits assumed): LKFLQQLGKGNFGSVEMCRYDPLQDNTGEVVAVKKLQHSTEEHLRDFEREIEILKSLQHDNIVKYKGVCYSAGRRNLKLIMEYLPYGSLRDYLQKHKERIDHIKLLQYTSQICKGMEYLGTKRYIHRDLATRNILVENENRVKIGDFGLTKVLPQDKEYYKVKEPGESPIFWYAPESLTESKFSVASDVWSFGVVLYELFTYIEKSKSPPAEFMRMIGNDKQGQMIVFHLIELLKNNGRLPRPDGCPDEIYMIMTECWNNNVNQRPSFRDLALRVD
# T2 sequence (P23458 875-1153 limits assumed): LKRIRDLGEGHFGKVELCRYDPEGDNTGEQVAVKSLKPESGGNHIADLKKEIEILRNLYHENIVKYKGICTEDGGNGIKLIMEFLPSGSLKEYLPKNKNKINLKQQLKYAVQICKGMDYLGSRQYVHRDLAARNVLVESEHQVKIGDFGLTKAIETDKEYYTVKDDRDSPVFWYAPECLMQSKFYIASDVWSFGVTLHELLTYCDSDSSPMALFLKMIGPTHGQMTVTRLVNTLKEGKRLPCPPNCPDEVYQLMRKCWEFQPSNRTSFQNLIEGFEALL
SMILES,IC50 (TYK2 kinase domain (JH1)) [nM],IC50 (JAK1 kinase domain (JH1)) [nM],IC50 (JAK2 kinase domain (JH1)) [nM],IC50 (JAK3 kinase domain (JH1)) [nM],IC50 [1] [nM],IC50 [2] [nM],IC50 [3] [nM],IC50 [4] [nM]
"[2H]C([2H])([2H])NC(=O)c1nnc(NC(=O)C2CC2)cc1Nc1cccc2c1N(C)Cc1c[nH]nc1-2 [Compound 27, 6-(cyclopropanecarboxamido)-N-(methyl-d3)-4-((5-methyl-4,5-dihydro-2H-pyrazolo[4,3-c]quinolin-6-yl)amino)pyridazine-3-carboxamide]",> 1000,> 1000,> 1000,> 1000,< 30,< 30,> 1000,30 to 300
"[2H]C([2H])([2H])NC(=O)c1cnc(NC(=O)C2CC2)cc1Nc1cccc2c1N(C)Cc1cn(C([2H])([2H])[2H])nc1-2 [Compound 19, 6-(cyclopropanecarboxamido)-N-(methyl-d3)-4-((5-methyl-2-(methyl-d3)-4,5-dihydro-2H-pyrazolo[4,3-c]quinolin-6-yl)amino)nicotinamide]",> 1000,> 1000,> 1000,> 1000,< 30,< 30,> 1000,> 1000
"[2H]C([2H])([2H])NC(=O)c1cnc(NC(=O)C2CC2)cc1Nc1cccc2c1N(C)Cc1cn(C)nc1-2 [Compound 14, 6-(cyclopropanecarboxamido)-4-((2,5-dimethyl-4,5-dihydro-2H-pyrazolo[4,3-c]quinolin-6-yl)amino)-N-(methyl-d3)nicotinamide]",> 1000,> 1000,> 1000,> 1000,< 30,< 30,> 1000,300 to 1000
"Cn1cc2c(n1)-c1cccc(Nc3cc(Nc4ccc(F)cn4)nnc3C(N)=O)c1OC2 [Compound 8, 6-((5-fluoropyridin-2-yl)amino)-4-((2-methyl-2,4-dihydrochromeno[4,3-c]pyrazol-6-yl)amino)pyridazine-3-carboxamide]",> 1000,> 1000,300 to 1000,> 1000,< 30,30 to 300,300 to 1000,< 30
"[2H]C([2H])([2H])NC(=O)c1cnc(Nc2ccc(F)cn2)cc1Nc1cccc2c1N(C)Cc1cn(C)nc1-2 [Compound 13, 4-((2,5-dimethyl-4,5-dihydro-2H-pyrazolo[4,3-c]quinolin-6-yl)amino)-6-((5-fluoropyridin-2-yl)amino)-N-(methyl-d3)nicotinamide]",> 1000,> 1000,> 1000,> 1000,< 30,< 30,> 1000,300 to 1000
"[2H]C([2H])([2H])NC(=O)c1cnc(NC(=O)C2CC2)cc1Nc1cccc2c1OCc1cn(C)nc1-2 [Compound 6, 6-(cyclopropanecarboxamido)-N-(methyl-d3)-4-((2-methyl-2,4-dihydrochromeno[4,3-c]pyrazol-6-yl)amino)nicotinamide]",> 1000,> 1000,> 1000,> 1000,30 to 300,30 to 300,> 1000,> 1000
"CNC(=O)c1nnc(Nc2ccc(F)cn2)cc1Nc1cccc2c1N(C)Cc1cn(C)nc1-2 [Compound 12, (4-((2,5-dimethyl-4,5-dihydro-2H-pyrazolo[4,3-c]quinolin-6-yl)amino)-6-((5-fluoropyridin-2-yl)amino)-N-methylpyridazine-3-carboxamide)]",> 1000,> 1000,> 1000,> 1000,< 30,< 30,> 1000,30 to 300

# Further lines, with some results ahead:
IC50 (TYK2 kinase domain (JH1)) [nM],IC50 (JAK1 kinase domain (JH1)) [nM],IC50 (JAK2 kinase domain (JH1)) [nM],IC50 (JAK3 kinase domain (JH1)) [nM],SMILES,IC50 [1] [nM],IC50 [2] [nM],IC50 [3] [nM],IC50 [4] [nM]
> 1000,> 1000,> 1000,> 1000,"COC(=O)c1cnc(NC(=O)C2CC2)cc1Nc1cccc2c1N(C)Cc1cn(C)nc1-2 [Compound 60, methyl 6-(cyclopropanecarboxamido)-4-((2,5-dimethyl-4,5-dihydro-2H-pyrazolo[4,3-c]quinolin-6-yl)amino)nicotinate]",< 30,< 30,> 1000,> 1000
> 1000,> 1000,> 1000,> 1000,"[2H]C([2H])([2H])NC(=O)c1cnc(N2CCN(C(C)C)C2=O)cc1Nc1cccc2c1N(C)Cc1cn(C)nc1-2 [Compound 61, 4-((2,5-dimethyl-4,5-dihydro-2H-pyrazolo[4,3-c]quinolin-6-yl)amino)-6-(3-isopropyl-2-oxoimidazolidin-1-yl)-N-(methyl-d3)nicotinamide]",< 30,30 to 300,> 1000,> 1000
> 1000,> 1000,> 1000,> 1000,"[2H]C([2H])([2H])NC(=O)c1cnc(Nc2cc(C)nc(C)n2)cc1Nc1cccc2c1OCc1cn(C)nc1-2 [Compound 9, 6-((2,6-dimethylpyrimidin-4-yl)amino)-N-(methyl-d3)-4-((2-methyl-2,4-dihydrochromeno[4,3-c]pyrazol-6-yl)amino)nicotinamide]",< 30,30 to 300,> 1000,300 to 1000
